Experimental data from article PMC6811774, “Potent, selective, and subunit‐dependent activation of TRPC5 channels by a xanthine derivative” (British Journal of Pharmacology, 2019).

Target: T1, TRPC1:C5 channels (Homo sapiens, UniProt P48995+Q9UL62)
T1 construct: expressed in transfected cells; host or cells: HEK 293 (transient, Lipofectamine 3000)
Experiment: Excised outside-out patch-clamp, HEK 293 cells transiently co-expressing hTRPC1 and hTRPC5
Assay type: cell-based
Method: HEK T‐REx™ cell line was transfected with TRPC5‐SYFP2 or TRPC4‐SYFP2 using FuGENE® HD transfection reagent. After 48 hr, cells were put under antibiotic selection using 400 μg·ml^−1 zeocin and 10 μg·ml^−1 blasticidin S (Invivogen, San Diego, California, USA). Medium changes were carried out regularly to remove dead cells. HEK T‐REx cells expressing tetracycline‐inducible human TRPC5, TRPC4–C1, and TRPC5–C1 were created as described previously (Akbulut et al., 2015; Ludlow et al., 2017; Rubaiy, Ludlow, Henrot, et al., 2017). […]
For electrophysiology experiments, cells were plated at a low density of 20–30% onto round or square glass coverslips (13 mm diameter or 5 × 5 mm), and TRPC expression in HEK T‐REx was induced with 1 μg·ml^−1 tetracycline 24 hr before experimentation. […] The patch‐clamp currents were recorded using Axopatch 200B or HEKA EPC‐800 amplifiers, digitized by a Digidata 1440 or PCI6229 (National Instruments Japan, Tokyo, Japan) and recorded to a computer using pCLAMP10 (Molecular Devices) or WinWCPV4.5 (developed by Dr John Dempster, University of Strathclyde, UK). […]

T1 sequence (Q9UL62 whole entry): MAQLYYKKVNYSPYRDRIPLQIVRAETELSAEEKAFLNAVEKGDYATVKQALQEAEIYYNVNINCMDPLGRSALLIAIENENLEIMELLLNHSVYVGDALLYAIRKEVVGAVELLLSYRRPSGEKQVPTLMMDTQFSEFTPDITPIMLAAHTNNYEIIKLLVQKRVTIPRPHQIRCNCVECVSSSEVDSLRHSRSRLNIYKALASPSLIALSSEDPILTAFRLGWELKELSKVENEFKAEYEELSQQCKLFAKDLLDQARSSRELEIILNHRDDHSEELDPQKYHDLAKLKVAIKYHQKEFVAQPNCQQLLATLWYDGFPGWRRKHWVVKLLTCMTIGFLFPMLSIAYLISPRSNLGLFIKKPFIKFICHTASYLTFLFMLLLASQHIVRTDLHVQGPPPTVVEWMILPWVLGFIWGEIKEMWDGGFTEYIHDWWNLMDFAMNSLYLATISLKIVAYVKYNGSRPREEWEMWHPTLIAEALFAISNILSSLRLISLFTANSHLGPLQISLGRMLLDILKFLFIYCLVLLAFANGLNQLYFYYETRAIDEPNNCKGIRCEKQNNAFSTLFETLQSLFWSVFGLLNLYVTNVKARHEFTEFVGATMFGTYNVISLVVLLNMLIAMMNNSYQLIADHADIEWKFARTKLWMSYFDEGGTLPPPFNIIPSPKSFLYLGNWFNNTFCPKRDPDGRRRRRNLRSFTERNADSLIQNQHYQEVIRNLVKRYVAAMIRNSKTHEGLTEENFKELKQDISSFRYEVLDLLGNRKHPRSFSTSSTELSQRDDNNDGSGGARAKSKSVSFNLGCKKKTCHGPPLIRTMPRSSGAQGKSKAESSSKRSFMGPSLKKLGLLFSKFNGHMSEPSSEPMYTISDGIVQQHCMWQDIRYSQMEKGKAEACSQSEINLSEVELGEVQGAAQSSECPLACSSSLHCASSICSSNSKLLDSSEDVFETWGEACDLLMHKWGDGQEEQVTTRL
T1 sequence (P48995 whole entry): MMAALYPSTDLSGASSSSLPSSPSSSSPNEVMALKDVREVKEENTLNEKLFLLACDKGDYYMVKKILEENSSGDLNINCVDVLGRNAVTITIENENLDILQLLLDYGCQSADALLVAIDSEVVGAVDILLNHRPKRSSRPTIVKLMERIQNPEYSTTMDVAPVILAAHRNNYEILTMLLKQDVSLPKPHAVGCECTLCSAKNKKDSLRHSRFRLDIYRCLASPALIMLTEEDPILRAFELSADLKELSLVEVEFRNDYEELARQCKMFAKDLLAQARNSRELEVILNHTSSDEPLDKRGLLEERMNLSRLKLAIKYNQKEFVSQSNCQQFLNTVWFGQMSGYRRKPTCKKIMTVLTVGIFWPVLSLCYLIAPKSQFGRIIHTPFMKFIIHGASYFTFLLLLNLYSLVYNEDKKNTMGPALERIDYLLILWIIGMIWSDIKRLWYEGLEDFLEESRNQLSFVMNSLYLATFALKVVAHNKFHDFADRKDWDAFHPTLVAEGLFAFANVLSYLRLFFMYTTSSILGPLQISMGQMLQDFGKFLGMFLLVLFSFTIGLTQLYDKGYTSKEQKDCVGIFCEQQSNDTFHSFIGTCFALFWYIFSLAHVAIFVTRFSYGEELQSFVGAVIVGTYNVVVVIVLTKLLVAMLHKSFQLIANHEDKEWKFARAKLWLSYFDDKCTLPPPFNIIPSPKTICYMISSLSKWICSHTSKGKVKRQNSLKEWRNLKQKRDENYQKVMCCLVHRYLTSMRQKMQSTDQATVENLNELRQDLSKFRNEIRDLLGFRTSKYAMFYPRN

Q: With Cn1c(=O)n(CCCO)c(=O)c2c1nc(Oc1ccc(Cl)c(OC(F)(F)F)c1)n2Cc1ccc(Cl)cc1 [AM237] as the compound, how does the “Inhibition of inward and outward currents induced by EA” value (30 nM EA, at 3 to 100 nM AM237) read?
A: full inhibition

Q: What about the “Activation of TRPC1:C5 currents” value (outside-out patch) of the same compound?
A: did not activate
